System: HCT-116
Experiment: Cytotoxicity against human HCT116 cells after 48 hrs by MTT assay
Assay type: functional, cell-based
Details: HCT-116, 48 h

Row | Structure (SMILES) | IC50 [µM]
1 | CC(=O)OC[C@H]1[C@@H]2C3=C(C(=O)[C@@H]2O[C@@]12OC[C@H](C)[C@@H](O)[C@@H]2O)[C@@H]1CC=C2C[C@@H](O)C[C@@H](O[C@@H]4OC[C@H](O)[C@H](O)[C@H]4O[C@@H]4O[C@@H](C)[C@H](OC(C)=O)[C@@H](O[C@@H]5OC[C@](O)(CO)[C@H]5O)[C@H]4O)[C@]2(C)[C@H]1CC3 | 4.92
2 | C/C(C(=O)CC[C@@H](C)CO[C@@H]1O[C@H](CO)[C@@H](O)[C@H](O)[C@H]1O)=C1/C(=O)C[C@H]2[C@@H]3CC=C4C[C@@H](O[C@@H]5O[C@H](CO)[C@@H](O[C@@H]6O[C@@H](C)[C@H](O)[C@@H](O)[C@H]6O)[C@H](O)[C@H]5O)CC[C@]4(C)[C@H]3CC[C@]12C | 17.3
3 | CC(=O)O[C@H]1[C@@H](C)CO[C@@]2(O[C@H]3C(=O)C4=C(CC[C@H]5[C@H]4CC=C4C[C@@H](O)C[C@@H](O[C@@H]6OC[C@H](O)[C@H](O[C@@H]7OC[C@@H](O)[C@H](O)[C@H]7O)[C@H]6O[C@@H]6O[C@@H](C)[C@H](O)[C@@H](O[C@@H]7OC[C@](O)(CO)[C@H]7O)[C@H]6O)[C@@]45C)[C@H]3[C@@H]2CO)[C@H]1O | 5.84
4 | CC1=C2[C@](O)(C[C@H]3[C@@H]4CC=C5C[C@@H](O[C@@H]6O[C@H](CO)[C@@H](O[C@@H]7O[C@@H](C)[C@H](O)[C@@H](O)[C@H]7O)[C@H](O)[C@H]6O[C@@H]6O[C@@H](C)[C@H](O)[C@@H](O)[C@H]6O)CC[C@]5(C)[C@H]4CC[C@]23C)[C@@H](C[C@@H](C)CO[C@@H]2O[C@H](CO)[C@@H](O)[C@H](O)[C@H]2O)C1=O | > 40
5 | Cc1c(CCC(C)CO)ccc2c1[C@@]1(C)CC[C@H]3[C@@H](CC=C4C[C@@H](O[C@@H]5O[C@H](CO)[C@@H](O)[C@H](O)[C@H]5O[C@@H]5O[C@@H](C)[C@H](O)[C@@H](O)[C@H]5O)CC[C@@]43C)[C@@H]1C2 (stereo not given in full) | > 40
6 | C[C@@H]1O[C@@H](O[C@H]2[C@H](O[C@H]3CC[C@@]4(C)C(=CC[C@@H]5[C@@H]4CC[C@]4(C)C(=O)OC[C@@H]54)C3)O[C@H](CO)[C@@H](O)[C@@H]2O)[C@H](O)[C@H](O)[C@H]1O | > 40
7 | COC(=O)/C(C)=C1\C(=O)C[C@H]2[C@@H]3CC=C4C[C@@H](O[C@@H]5O[C@H](CO)[C@@H](O)[C@H](O)[C@H]5O[C@@H]5O[C@@H](C)[C@H](O)[C@@H](O)[C@H]5O)CC[C@]4(C)[C@H]3CC[C@]12C | > 40
8 | CC(=O)OC[C@H]1[C@@H]2C3=C(C(=O)[C@@H]2O[C@@]12OC[C@H](C)[C@@H](O)[C@@H]2O)[C@@H]1CC=C2C[C@@H](O)C[C@@H](O[C@@H]4OC[C@H](O)[C@H](O[C@@H]5OC[C@@H](O)[C@H](O)[C@H]5O)[C@H]4O[C@@H]4O[C@@H](C)[C@H](O)[C@@H](O[C@@H]5OC[C@](O)(CO)[C@H]5O)[C@H]4O)[C@]2(C)[C@H]1CC3 | 22.5
9 | C/C(C(=O)CC[C@@H](C)CO[C@@H]1O[C@H](CO)[C@@H](O)[C@H](O)[C@H]1O)=C1/C(=O)C[C@H]2C3CC=C4C[C@@H](O[C@@H]5O[C@H](CO)[C@@H](O)[C@H](O)[C@H]5O[C@@H]5O[C@@H](C)[C@H](O)[C@@H](O)[C@H]5O)CC[C@]4(C)[C@H]3CC[C@]12C (single isomer, unassigned) | 12.7
10 | CC[C@@]1(O)C(=O)OCc2c1cc1n(c2=O)Cc2cc3ccccc3nc2-1 [CAMPTOTHECIN] | 0.0115

— ChEMBL document CHEMBL4024731, “Cytotoxic steroidal saponins from Trillium kamtschaticum” (Bioorg Med Chem Lett, 2017)
